Measured values from patent US20230144898A1, “INHIBITOR OF ASPARTIC ACID SYNTHESIS IN TUMOR CELLS, INHIBITOR OF SPHEROID FORMATION OF TUMOR CELLS, INHIBITOR OF TUMOR CELL METASTASIS, ACTIVITY ENHANCER OF GLYCOLYTIC INHIBITOR, AND PHARMACEUTICAL COMPOSITION FOR SUPPRESSING AND/OR PREVENTING TUMOR METASTASIS” (CCI HOLDINGS INC., priority 2020, published 2023).
pIC50: −log10 of the molar value. ≈ marks a conversion by molar mass, not a printed value. Where two headings read alike, the source gives them in different places.

Key:
B16F10 cells = test: Influence on anticancer action of 2-DG, cell viability (Test Example 3); type: cell-based, mouse; settings: 2-DG 3 mM to 3 nM, negative control section (DMSO), 36 hours
Procedure: Specifically, to start with, B16F10 cells were seeded in a six-well plate in an amount of 0.5×10^5 cells/mL. Next, after 24 hours starting from seeding, 2-DG (concentration changed from 3 mM to 3 nM) was added and simultaneously treated with neopetasin at a concentration of 0.3 µM or 3 µM. Then, after 36 hours starting from this treatment, the cell viability was measured through the same method as in Test Example 1. Moreover, as a negative control section, DMSO was administered to perform the same experiment.

[1] = system: CMeCl cells (canine malignant melanoma cells); test: Proliferation inhibition, CMeC1 cells, trypan blue viable cell count (Test Example 1); type: cell-based; settings: Cell line: CMeC1, incubated for 72 hours; for pIC50: read-out: IC50
Procedure: Four compounds of petasin, S-petasin, neopetasin and neo-S-petasin were evaluated for the inhibitory effect on proliferation of mouse or canine malignant melanoma cells by the following method.
B16F10 cells (mouse malignant melanoma cells) were obtained from JCRB Cell Bank (National Institutes of Biomedical Innovation, Health and Nutrition). In addition, CMeCl cells (canine malignant melanoma cells) were obtained from Veterinary Surgery Laboratory, Graduate School of Agricultural and Life Sciences, the University of Tokyo. Furthermore, A2058 cells (human malignant melanoma cells) were obtained from JCRB Cell Bank (National Institutes of Biomedical Innovation, Health and Nutrition). B16F10 cells were cultured in a 37° C. incubator (air/CO2 = 95/5 (v/v)) using Dulbecco’s modified Eagle’s medium (DMEM), CMeCl cells in RPMI (Roswell Park Memorial Institute) medium (RPMI1640), and A2058 cells in E-MEM medium.
First, CMeCl cells (canine malignant melanoma cells) were seeded in a six-well plate so as to be 0.5×10^5 cells/mL, and after 24 hours therefrom, each of the above four kinds of compounds (final concentration: 0.01 to 100 µg/mL) was suspended in the medium at a ratio of 0.1% and incubated for 72 hours. 72 hours after the start of culture, the number of viable cells was measured by trypan blue staining. At this time, viable cells (cell viability%) were calculated as the relative number of cells when the number of viable cells in a negative control section (DMSO treatment) was taken as 100%. Then, IC50 was calculated using a GraphPad Prism software system (GraphPad Software Inc.).

colon cancer cell lines = settings: cited from earlier work
[2] = system: B16F10 cells (mouse malignant melanoma cells); settings: cited from earlier work
[3] = system: mitochondria in B16F10 cells; test: Electron microscope observation of treated cells (Test Example 8); type: cell-based, mouse; settings: neopetasin 3 µM, metformin 5000 µM
Procedure: Following the above results, the cells respectively treated with neopetasin (3 µM) and metformin (5000 µM) in the above were observed using an electron microscope. Furthermore, DMSO was administered to the negative control section, and the same experiment was performed.

[4] = system: mitochondria in B16F10 cells; test: MitoTracker Orange staining of mitochondria (Test Example 8); type: cell-based, mouse; settings: neopetasin 3 µM, metformin 5000 µM; 48 hours
Procedure: In order to determine the action mechanism of neopetasin on inhibiting the aspartic acid synthesis in tumor cells, the influence of neopetasin on mitochondria in B16F10 cells was evaluated. Specifically, B16F10 cells treated with neopetasin (3 µM) for 48 hours through the same method as in Test Example 1 were stained using MitoTracker Orange (Thermo Fisher Scientific, MA, USA), which labels mitochondria depending on membrane potential. In addition, as a positive control section, in place of neopetasin, metformin known as a mitochondrial respiratory chain Complex I inhibitor (mitochondrial toxin) was used at a concentration of 5000 µM to perform the same experiment. Subsequently, the cells stained as described above were photographed with a fluorescence microscope (FIG. 9A). In addition, the relationship between fluorescence intensity of the cells and the distribution of the number of cells was measured using an image cytometer (Tali, Thermo Fisher Scientific, MA, USA) (FIG. 9B).

**Q.** For `O=CC[C@@H](O)[C@H](O)[C@H](O)CO` [2-DG, 2-deoxy-D-glucose, reference compound], which cell viability (B16F10 cells) is on record?
**A.** reduced in a concentration-dependent manner

**Q.** With `C=C(C)[C@@H]1C[C@@]2(C)C(=CC1=O)CC[C@@H](OC(=O)/C(C)=C\C)[C@@H]2C` [Petasin, petasin] as the molecule, how does the pIC50 ([1]; Canis lupus familiaris, 72 h) read?
**A.** 5.55

**Q.** What about the “migration and invasion of colon cancer cell lines” value (colon cancer cell lines) of the same molecule?
**A.** suppressed migration and invasion

**Q.** What about the “proliferation of colon cancer cell lines” value (colon cancer cell lines) of the same molecule?
**A.** inhibited proliferation

**Q.** Which results are given for `C=C(C)[C@@H]1C[C@@]2(C)C(=CC1=O)CC[C@@H](OC(=O)/C=C\SC)[C@@H]2C` [S-petasin, reference compound]?
**A.** IC50 (µg/mL) [1]: 0.755 µg/mL (≈ 2.26 µM); pIC50 [1]: 5.65

**Q.** Which “IC50 for B16F10 cells (classical anticancer agent)” value [2] does the source give for `N.N.[Cl][Pt][Cl]` [cisplatin] here?
**A.** 5 µg/mL

**Q.** With `CN(C)C(=N)N=C(N)N` [metformin, reference compound] as the molecule, how does the “influence on mitochondria (electron microscope)” value [3] read?
**A.** the influence on mitochondria was mild

**Q.** And the “MitoTracker Orange fluorescence intensity” value [4]?
**A.** enhanced fluorescence intensity

**Q.** Which “IC50 (µg/mL)” value [1] does the source give for neo-S-petasin [reference compound] here?
**A.** 0.537 µg/mL

**Q.** What about the pIC50 [1] of the same molecule?
**A.** 5.79
